{"source": "patent US11078226B2", "about": "“Fluorogenic glycosidase substrate and associated detection method” (ECOLE NORMALE SUPERIEURE DE LYON, priority 2016, dated 2021)", "origin": "cited, not measured here", "settings": "cited from earlier work"}
{"smiles": "O=c1[nH]c(-c2cc(Cl)ccc2O)nc2ccc(Cl)cc12", "note": "[dichloro-HPQ, 6-chloro-2-(5-chloro-2-hydroxyphenyl)-4(3H)-quinazolinone]", "values": [{"measurement": "solubility in aqueous/physiological media", "value": "completely insoluble"}]}
